Test results taken from patent publication US20120115845A1, “THERAPEUTIC AGENTS” (priority 2007, published 2012).

Experiments:
human GHS receptor [1] = target: T1, human GHS receptor (Homo sapiens, UniProt Q92847); assay: h bind IC50 (binding assay, Table 1); conditions: for IC50: human receptor, Table 1
human GHS receptor [2] = target: T1, human GHS receptor; assay: Ghrelin IP1 agonist assay (IP1 HTRF); assay type: cell-based; design: expressed in transfected cells; host or cells: HEK293s; conditions: for Emax: 2 h, agonist effect as % maximal effect of GHRP-6 (5 μM), read-out: h IP1 ag %; for EC50: HEK293s cells stably expressing human GHS receptor, 2 hours at 37° C., read-out: h IP1 ag EC50
Description: In HEK293s cells stably expressing human GHS receptor (In-house), agonist activity was assessed by measuring intracellular myo-Inositol 1 phosphate (IP1) using the IP1 HTRF assay kit (Cisbio International).
Cells were harvested using accutase (Sigma), spun down at 1000 rpm for 5 minutes and resuspended in stimulation buffer (as above) containing 0.02% fatty acid free BSA at a density of 1.43E6cells/ml.
Agonist effect of the compound was expressed as % maximal effect of GHRP-6 (5 μM: Bachem). Sigmoidal curves were fitted by Origin 7.5 Client and EC50 values determined.

T1 sequence (Q92847 whole entry): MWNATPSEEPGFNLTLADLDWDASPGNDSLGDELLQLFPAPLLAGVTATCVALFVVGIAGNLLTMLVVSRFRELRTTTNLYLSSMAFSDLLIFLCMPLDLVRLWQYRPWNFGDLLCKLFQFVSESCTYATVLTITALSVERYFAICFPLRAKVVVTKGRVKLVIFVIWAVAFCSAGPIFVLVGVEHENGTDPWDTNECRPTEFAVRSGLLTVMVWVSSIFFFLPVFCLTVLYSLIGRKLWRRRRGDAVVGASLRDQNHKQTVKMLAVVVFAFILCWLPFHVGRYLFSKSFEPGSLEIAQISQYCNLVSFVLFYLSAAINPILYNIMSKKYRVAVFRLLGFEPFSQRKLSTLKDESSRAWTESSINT

IC50 (human GHS receptor [1]) [µM]	Emax (human GHS receptor [2]) [%]	EC50 (human GHS receptor [2]) [µM]	Compound	IC50 in the binding assay (human GHS receptor [1])
0.15	0	≥ 20	CCN(CC)C1CCN(c2ccc(Cl)c(C(=O)NC(=O)Nc3nc4ccc(S(C)(=O)=O)cc4s3)c2)C1 (stereo not shown) [Example 239, 2-chloro-5-(3-(diethylamino)pyrrolidin-1-yl)-N-(6-(methylsulfonyl)benzo[d]thiazol-2-ylcarbamoyl) benzamide]	–
0.0017	3.9	0.0301	CCOc1ccc(Cl)c(C(=O)NC(=O)Nc2nc3ccc(S(=O)(=O)CCCN4CCN(C)CC4)cc3s2)c1 [Example 93, 2-Chloro-5-ethoxy-N-(6-(3-(4-methylpiperazin-1-yl)propylsulfonyl)benzothiazol-2-ylcarbamoyl)benzamide]	–
0.1	34.1	0.0644	O=C(NC(=O)c1ccccc1Cl)Nc1nc2ccc(S(=O)(=O)CCN3CC[C@H](F)C3)cc2s1 [Example 16, 2-Chloro-N-[[6-[2-[(3S)-3-fluoropyrrolidin-1-yl]ethylsulfonyl]benzothiazol-2-yl]carbamoyl]benzamide]	–
0.207	0.377	> 9.3	CN1CCN(c2ccc(Cl)c(C(=O)NC(=O)Nc3nc4ccc(S(C)(=O)=O)cc4s3)c2)CC1 [Example 59, 2-Chloro-5-(4-methylpiperazin-1-yl)-N-(6-(methylsulfonyl)benzothiazol-2-ylcarbamoyl)benzamide]	–
0.215	39.4	0.0986	CS(=O)(=O)c1ccc2nc(NC(=O)NC(=O)c3ccccc3-c3ccccc3)sc2c1 [Example 105, N-[(6-Methylsulfonylbenzothiazol-2-yl)carbamoyl]-2-phenyl-benzamide]	–
0.274	20.4	0.28	O=C(NC(=O)c1ccccc1Cl)Nc1nc2ccc(S(=O)(=O)Cc3ncc[nH]3)cc2s1 [Example 189, 2-Chloro-N-[[6-(1H-imidazol-2-ylmethylsulfonyl)benzothiazol-2-yl]carbamoyl]benzamide]	–
0.0143	7.67	0.00934	CC(C)(C)OC(=O)N1CCC(Oc2ccc(Cl)c(C(=O)NC(=O)Nc3nc4ccc(S(C)(=O)=O)cc4s3)c2)CC1 [Example 243, tert-butyl 4-(4-chloro-3-(6-(methylsulfonyl)benzo[d]thiazol-2-ylcarbamoyl-carbamoyl)phenoxy) piperidine-1-carboxylate]	–
0.392	15.8	0.0917	CS(=O)(=O)c1ccc2nc(NC(=O)NC(=O)c3cccc(F)c3Cl)sc2c1 [Example 110, 2-Chloro-3-fluoro-N-[(6-methylsulfonylbenzothiazol-2-yl)carbamoyl]benzamide]	–
0.284	7.89	0.206	CS(=O)(=O)c1ccc2nc(NC(=O)NC(=O)c3c(Cl)cccc3Cl)sc2c1 [Example 101, 2,6-Dichloro-N-[(6-methylsulfonylbenzothiazol-2-yl)carbamoyl]benzamide]	–
2.77	31.8	0.0614	CN(C)CCOc1ccc(Cl)c(C(=O)NC(=O)Nc2nc3ccc(S(C)(=O)=O)cc3s2)c1 [Example 63, 2-Chloro-5-(2-(dimethylamino)ethoxy)-N-(6-(methylsulfonyl)benzothiazol-2-ylcarbamoyl)benzamide]	–
0.0191	46.6	0.0239	O=C(NC(=O)c1ccccc1Cl)Nc1nc2ccc(S(=O)(=O)CCCN3CCCCC3)cc2s1 [Example 152, 2-Chloro-N-[[6-[3-(1-piperidyl)propylsulfonyl]benzothiazol-2-yl]carbamoyl]benzamide]	–
0.234	24	0.0611	O=C(NC(=O)c1ccccc1Cl)Nc1nc2ccc(S(=O)(=O)CCN3C[C@@H]4C[C@H]3CO4)cc2s1 [Example 37, 2-Chloro-N-[[6-[2-[(1S,4S)-3-oxa-6-azabicyclo[2.2.1]hept-6-yl]ethylsulfonyl]benzothiazol-2-yl]carbamoyl]benzamide]	–
0.0296	–	–	O=C(NC(=O)c1ccccc1Cl)Nc1nc2ccc(S(=O)(=O)CCCN3CCC(O)C3)cc2s1 (stereo not shown) [Example 160, 2-Chloro-N-[[6-[3-(3-hydroxypyrrolidin-1-yl)propylsulfonyl]benzothiazol-2-yl]carbamoyl]benzamide]	–
–	–	–	CS(=O)(=O)c1ccc2nc(NC(=O)NC(=O)c3cc(F)ccc3Cl)sc2c1 [2-chloro-5-fluoro-N-[(6-methylsulfonylbenzothiazol-2-yl)carbamoyl]benzamide]	did not have IC50s in the range of about 0.001 μM to about 10 μM
0.219	–	–	C=CS(=O)(=O)c1ccc2nc(NC(=O)NC(=O)c3ccccc3Cl)sc2c1 [Example 129, 2-Chloro-N-[(6-ethenylsulfonylbenzothiazol-2-yl)carbamoyl]benzamide]	–
0.0785	–	–	O=C(NC(=O)c1ccccc1Cl)Nc1nc2ccc(S(=O)(=O)CCCN3CCC(F)C3)cc2s1 (stereo not shown) [Example 157, 2-Chloro-N-[[6-[3-(3-fluoropyrrolidin-1-yl)propylsulfonyl]benzothiazol-2-yl]carbamoyl]benzamide]	–
0.201	–	–	O=C(NC(=O)c1ccccc1Cl)Nc1nc2ccc(S(=O)(=O)C3CCN(CC4CC4)C3)cc2s1 (stereo not shown) [Example 144, 2-Chloro-N-[[6-[1-(cyclopropylmethyl)pyrrolidin-3-yl]sulfonylbenzothiazol-2-yl]carbamoyl]benzamide]	–
0.0341	–	–	CC(C)N1CC(S(=O)(=O)c2ccc3nc(NC(=O)NC(=O)c4ccccc4Cl)sc3c2)C1 [Example 186, 2-Chloro-N-[[6-(1-propan-2-ylazetidin-3-yl)sulfonylbenzothiazol-2-yl]carbamoyl]benzamide]	–
0.4	–	–	O=C(NC(=O)c1ccccc1Cl)Nc1nc2ccc(S(=O)(=O)CCOCCO)cc2s1 [Example 121, 2-Chloro-N-[[6-[2-(2-hydroxyethoxy)ethylsulfonyl]benzothiazol-2-yl]carbamoyl]benzamide]	–
0.184	–	–	CC(NCCS(=O)(=O)c1ccc2nc(NC(=O)NC(=O)c3ccccc3Cl)sc2c1)c1ccccc1 (stereo not shown) [Example 20, 2-Chloro-N-[[6-[2-(1-phenylethylamino)ethylsulfonyl]benzothiazol-2-yl]carbamoyl]benzamide]	–
0.184	–	–	O=C(NC(=O)c1ccccc1Cl)Nc1nc2ccc(S(=O)(=O)CCNCC3CCCO3)cc2s1 (stereo not shown) [Example 22, 2-Chloro-N-[[6-[2-(oxolan-2-ylmethylamino)ethylsulfonyl]benzothiazol-2-yl]carbamoyl]benzamide]	–
0.67	–	–	CCN(CC)CCS(=O)(=O)c1ccc2nc(NC(=O)NC(=O)c3ccccc3Cl)sc2c1 [Example 7, 2-Chloro-N-[[6-(2-diethylaminoethylsulfonyl)benzothiazol-2-yl]carbamoyl]benzamide]	–
0.0015	–	–	CC(C)Oc1cc(Cl)c(C(=O)NC(=O)Nc2nc3ccc(S(=O)(=O)C4CCN(C)CC4)cc3s2)cc1-n1cccn1 [Example 267, 2-chloro-4-isopropoxy-N-(6-(1-methylpiperidin-4-ylsulfonyl)benzo [d]thiazol-2-ylcarbamoyl) 5-(1H-pyrazol-1-yl)benzamide]	–
0.151	–	–	CN1CCC[C@@H]1CS(=O)(=O)c1ccc2nc(NC(=O)NC(=O)c3ccccc3Cl)sc2c1 [Example 169, 2-Chloro-N-[[6-[[(2R)-1-methylpyrrolidin-2-yl]methylsulfonyl]benzothiazol-2-yl]carbamoyl]benzamide]	–
0.177	–	–	COCCOCCS(=O)(=O)c1ccc2nc(NC(=O)NC(=O)c3ccccc3Cl)sc2c1 [Example 42, 2-Chloro-N-[[6-[2-(2-methoxyethoxy)ethylsulfonyl]benzothiazol-2-yl]carbamoyl]benzamide]	–
0.403	–	–	O=C(NC(=O)c1ccccc1Cl)Nc1nc2ccc(S(=O)(=O)CCN3CCC(O)C3)cc2s1 (stereo not shown) [Example 5, 2-Chloro-N-[[6-[2-(3-hydroxypyrrolidin-1-yl)ethylsulfonyl]benzothiazol-2-yl]carbamoyl]benzamide]	–
0.0598	–	–	CC(C)NCCCS(=O)(=O)c1ccc2nc(NC(=O)NC(=O)c3ccccc3Cl)sc2c1 [Example 145, 2-Chloro-N-[[6-[3-(propan-2-ylamino)propylsulfonyl]benzothiazol-2-yl]carbamoyl]benzamide]	–

Compound	IC50 (human GHS receptor [1]) [µM]	Emax (human GHS receptor [2]) [%]	EC50 (human GHS receptor [2]) [µM]	IC50 in the binding assay (human GHS receptor [1])
CC(C)NCCS(=O)(=O)c1ccc2nc(NC(=O)NC(=O)c3ccccc3Cl)sc2c1 [Example 10, 2-Chloro-N-[[6-[2-(propan-2-ylamino)ethylsulfonyl]benzothiazol-2-yl]carbamoyl]benzamide]	0.0273	44.1	0.0189	–
CN(C)C1CC(Oc2ccc(Cl)c(C(=O)NC(=O)Nc3nc4ccc(S(C)(=O)=O)cc4s3)c2)C1 (stereo not shown) [Example 269, 2-Chloro-5-(3-dimethylaminocyclobutoxy)-N-[(6-methylsulfonyl-1,3-benzothiazol-2-yl)carbamoyl]benzamide]	8.73	–	–	–
O=C(NC(=O)c1cc(-n2cccc2)ccc1Cl)Nc1nc2ccc(S(=O)(=O)CCCN3CCC3)cc2s1 [Example 74, N-[[6-[3-(Azetidin-1-yl)propylsulfonyl]benzothiazol-2-yl]carbamoyl]-2-chloro-5-pyrrol-1-yl-benzamide]	0.001	–	–	–
CC(C)NCCCS(=O)(=O)c1ccc2nc(NC(=O)NC(=O)c3cc(-n4cccc4)ccc3Cl)sc2c1 [Example 75, 2-Chloro-N-[[6-[3-(propan-2-ylamino)propylsulfonyl]benzothiazol-2-yl]carbamoyl]-5-pyrrol-1-yl-benzamide]	0.0074	–	–	–
O=C(NC(=O)c1cc(-n2cccc2)ccc1Cl)Nc1nc2ccc(S(=O)(=O)CCN3CCC3)cc2s1 [Example 81, N-[[6-[2-(Azetidin-1-yl)ethylsulfonyl]benzothiazol-2-yl]carbamoyl]-2-chloro-5-pyrrol-1-yl-benzamide]	0.002	–	–	–
